Test results from ChEMBL document CHEMBL3352057, “Novel fluorinated pyrrolo[1,2-a]pyrazine-2,6-dione derivatives: synthesis and anticonvulsant evaluation in animal models of epilepsy” (Bioorg Med Chem, 2014).
Calls of active or inactive are those of the source. The calls are words filed in the database; no cut-off is given here.

Assays:
Mus musculus [1] = assay: Anticonvulsant activity in ip dosed albino CF1 mouse assessed as protection against 6 Hz current-induced seizures; type: functional
Mus musculus [2] = assay: Neurotoxicity in ip dosed 6 Hz current-induced seizure albino CF1 mouse model; type: toxicity, organism-based; conditions: in vivo
[3] = Protective index, ratio of TD50 for neurotoxicity in ip dosed albino CF1 mouse to ED50 for anticonvulsant activity in ip dosed 6 Hz current-induced seizure albino CF1 mouse model; type: toxicity, organism-based; conditions: in vivo, read-out: Ratio TD50/ED50
Mus musculus [4] = assay: Anticonvulsant activity in ip dosed albino CF1 mouse assessed as protection against 6 Hz current-induced seizures measured as time to peak effect; type: functional
Mus musculus [5] = assay: Anticonvulsant activity in ip dosed corneal kindled albino CF1 mouse seizure model; type: functional
Mus musculus [6] = assay: Anticonvulsant activity in ip dosed corneal kindled albino CF1 mouse seizure model assessed as time to peak effect; type: functional
Mus musculus [7] = assay: Anticonvulsant activity in albino CF1 mouse assessed as protection against maximal electroshock-induced seizures at 100 mg/kg, ip measured after 0.25 hr; type: functional, organism-based; design: dose 100 mg/kg
Mus musculus [8] = assay: Anticonvulsant activity in albino CF1 mouse assessed as protection against maximal electroshock-induced seizures at 100 mg/kg, ip measured after 0.5 hr; type: functional, organism-based; design: dose 100 mg/kg
Mus musculus [9] = assay: Anticonvulsant activity in albino CF1 mouse assessed as protection against maximal electroshock-induced seizures at 100 mg/kg, ip measured after 1 hr; type: functional, organism-based; design: dose 100 mg/kg
Mus musculus [10] = assay: Anticonvulsant activity in albino CF1 mouse assessed as protection against maximal electroshock-induced seizures at 100 mg/kg, ip measured after 4 hrs; type: functional, organism-based; design: dose 100 mg/kg
Mus musculus [11] = assay: Anticonvulsant activity in albino CF1 mouse assessed as protection against subcutaneous metrazol-induced seizures at 100 mg/kg, ip measured after 0.25 hr; type: functional, organism-based; design: dose 100 mg/kg
Mus musculus [12] = assay: Anticonvulsant activity in albino CF1 mouse assessed as protection against subcutaneous metrazol-induced seizures at 100 mg/kg, ip measured after 0.5 hr; type: functional, organism-based; design: dose 100 mg/kg
Mus musculus [13] = assay: Anticonvulsant activity in albino CF1 mouse assessed as protection against subcutaneous metrazol-induced seizures at 100 mg/kg, ip measured after 1 hr; type: functional, organism-based; design: dose 100 mg/kg
Mus musculus [14] = assay: Anticonvulsant activity in albino CF1 mouse assessed as protection against subcutaneous metrazol-induced seizures at 100 mg/kg, ip measured after 4 hrs; type: functional, organism-based; design: dose 100 mg/kg
Mus musculus [15] = assay: Neurotoxicity in albino CF1 mouse at 100 mg/kg, ip measured after 0.25 hr; type: toxicity, organism-based; design: dose 100 mg/kg, route intraperitoneal; conditions: in vivo
Mus musculus [16] = assay: Neurotoxicity in albino CF1 mouse at 100 mg/kg, ip measured after 0.5 hr; type: toxicity, organism-based; design: dose 100 mg/kg, route intraperitoneal; conditions: in vivo
Mus musculus [17] = assay: Neurotoxicity in albino CF1 mouse at 100 mg/kg, ip measured after 1 hr; type: toxicity, organism-based; design: dose 100 mg/kg, route intraperitoneal; conditions: in vivo
Mus musculus [18] = assay: Neurotoxicity in albino CF1 mouse at 100 mg/kg, ip measured after 4 hrs; type: toxicity, organism-based; design: dose 100 mg/kg, route intraperitoneal; conditions: in vivo
Mus musculus [19] = assay: Anticonvulsant activity in albino CF1 mouse assessed as protection against 32 mA current-induced seizures at 100 mg/kg, ip measured after 0.25 hr; type: functional, organism-based; design: dose 100 mg/kg
Mus musculus [20] = assay: Anticonvulsant activity in albino CF1 mouse assessed as protection against 32 mA current-induced seizures at 100 mg/kg, ip measured after 0.5 hr; type: functional, organism-based; design: dose 100 mg/kg
Mus musculus [21] = assay: Anticonvulsant activity in albino CF1 mouse assessed as protection against 32 mA current-induced seizures at 100 mg/kg, ip measured after 1 hr; type: functional, organism-based; design: dose 100 mg/kg
Mus musculus [22] = assay: Anticonvulsant activity in albino CF1 mouse assessed as protection against 32 mA current-induced seizures at 100 mg/kg, ip measured after 2 hrs; type: functional, organism-based; design: dose 100 mg/kg
Mus musculus [23] = assay: Anticonvulsant activity in albino CF1 mouse assessed as protection against 32 mA current-induced seizures at 100 mg/kg, ip measured after 4 hrs; type: functional, organism-based; design: dose 100 mg/kg
Mus musculus [24] = assay: Neurotoxicity in 32 mA current-induced seizure albino CF1 mouse model at 100 mg/kg, ip measured after 0.25 hr; type: toxicity, organism-based; design: dose 100 mg/kg, route intraperitoneal; conditions: in vivo
Mus musculus [25] = assay: Neurotoxicity in 32 mA current-induced seizure albino CF1 mouse model at 100 mg/kg, ip measured after 0.5 hr; type: toxicity, organism-based; design: dose 100 mg/kg, route intraperitoneal; conditions: in vivo
Mus musculus [26] = assay: Neurotoxicity in 32 mA current-induced seizure albino CF1 mouse model at 100 mg/kg, ip measured after 1 hr; type: toxicity, organism-based; design: dose 100 mg/kg, route intraperitoneal; conditions: in vivo
Mus musculus [27] = assay: Neurotoxicity in 32 mA current-induced seizure albino CF1 mouse model at 100 mg/kg, ip measured after 2 hrs; type: toxicity, organism-based; design: dose 100 mg/kg, route intraperitoneal; conditions: in vivo
Mus musculus [28] = assay: Neurotoxicity in 32 mA current-induced seizure albino CF1 mouse model at 100 mg/kg, ip measured after 4 hrs; type: toxicity, organism-based; design: dose 100 mg/kg, route intraperitoneal; conditions: in vivo
Rattus norvegicus [29] = assay: Anticonvulsant activity in pilocarpine-induced status prevention Sprague-Dawley rat model assessed as weight change 24 hrs post-first stage 3 seizure of protected rat at 300 mg/kg, ip measured after 0.5 hr; type: functional; conditions: route intraperitoneal
Rattus norvegicus [30] = assay: Anticonvulsant activity in pilocarpine-induced status prevention Sprague-Dawley rat model assessed as weight change 24 hrs post-first stage 3 seizure of non-protected rat at 300 mg/kg, ip measured after 0.5 hr; type: functional; conditions: route intraperitoneal
Mus musculus [31] = assay: Anticonvulsant activity in ip dosed albino CF1 mouse assessed as protection against maximal electroshock-induced seizures; type: functional
Mus musculus [32] = assay: Anticonvulsant activity in ip dosed albino CF1 mouse assessed as protection against subcutaneous metrazol-induced seizures; type: functional
[33] = Neurotoxicity in ip dosed albino CF1 mouse; type: toxicity, organism-based; conditions: in vivo
Mus musculus [34] = assay: Anticonvulsant activity in ip dosed albino CF1 mouse assessed as protection against maximal electroshock-induced seizures measured as time to peak effect; type: functional
Rattus norvegicus [35] = assay: Anticonvulsant activity in ip dosed hippocampal kindled albino Sprague-Dawley rat seizure model; type: functional; conditions: Hippocampus
Rattus norvegicus [36] = assay: Anticonvulsant activity in ip dosed hippocampal kindled albino Sprague-Dawley rat seizure model assessed as time of rest; type: functional, Hippocampus

Work on `CC[C@@H](C(N)=O)N1CCCC1=O` yielded an ED50 (Mus musculus [1]) of 114 µmol/kg, an ED50 (Mus musculus [2]) of 252 µmol/kg and a selectivity ratio [3] of over 25.8. The Time (Mus musculus [4]) was 1 h, the ED50 (Mus musculus [5]) was 94 µmol/kg and the Time (Mus musculus [6]) was 0.5 h.
For `O=C1NC(=O)[C@@H]2CCCN2[C@H]1c1ccc(F)cc1`, the Activity (Mus musculus [7]) was “Active”, the Activity (Mus musculus [8]) was “inactive” and the Activity (Mus musculus [9]) was “Active”. The Activity (Mus musculus [10]) was “inactive”, the Activity (Mus musculus [11]) was “Active” and the Activity (Mus musculus [12]) was “inactive”. For the same molecule, the Activity (Mus musculus [13]) was “inactive”, the Activity (Mus musculus [14]) was “inactive” and the Activity (Mus musculus [15]) was “Non-toxic”. The Activity (Mus musculus [16]) was “Non-toxic”, the Activity (Mus musculus [17]) was “Non-toxic” and the Activity (Mus musculus [18]) was “Non-toxic”. For the same molecule, the Activity (Mus musculus [19]) was “Active”, the Activity (Mus musculus [20]) was “inactive” and the Activity (Mus musculus [21]) was “inactive”. For the same molecule, the Activity (Mus musculus [22]) was “inactive”, the Activity (Mus musculus [23]) was “inactive” and the Activity (Mus musculus [24]) was “Non-toxic”. The Activity (Mus musculus [25]) was “Non-toxic”, the Activity (Mus musculus [26]) was “Non-toxic” and the Activity (Mus musculus [27]) was “Non-toxic”. For the same molecule, the Activity (Mus musculus [28]) was “Non-toxic”, the Activity (Rattus norvegicus [29]) was -12 g and the Activity (Rattus norvegicus [30]) was -30 g.
In the case of `COC[C@@H](NC(C)=O)C(=O)NCc1ccccc1` [LACOSAMIDE], the ED50 (Mus musculus [31]) is reported as 18 µmol/kg, the ED50 (Mus musculus [32]) is reported as over 100 µmol/kg and the TD50 [33] is reported as 107 µmol/kg. For the same molecule, the Time (Mus musculus [34]) was 0.5 h, the ED50 (Rattus norvegicus [35]) was 56 µmol/kg and the Time (Rattus norvegicus [36]) was 0.25 h.
